Test results as given in PubChem BioAssay AID328 (DTP/NCI, 2004).
Several values for one entry are separate records, joined by “and”; a condition that tells them apart may be missing. Equal values may be shown once. Inconclusive results and toxic doses are left out. The calls were made as follows: active = survival T/C of 150% or more; inactive = T/C below 125% in these data.

System: BDF1 mice, P388 leukemia ip, median survival T/C
Test: NCI In Vivo Anticancer Drug Screen. Data for tumor model P388 Leukemia (intraperitoneal) in B6D2F1 (BDF1) mice
Details: endpoint: median survival time, higher = longer survival
In short: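 Each value expresses how treatment altered survival: treated-mouse outcome over vehicle-mouse outcome, both groups bearing the transplanted tumour.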

[1] = dose: 25.0 mg/kg/injection, schedule: Q01DX009 (ip), vehicle: saline with Tween-80
[2] = dose: 50.0 mg/kg/injection, schedule: Q01DX009 (ip), vehicle: saline with Tween-80
[3] = dose: 100.0 mg/kg/injection, schedule: Q01DX009 (ip), vehicle: saline with Tween-80

Measured: T/C

COc1cc(C[C@H]2c3cc(OC)c(OC)cc3CCN2C)c(Oc2cc3c(cc2OC)-c2c(OC)c(OC)cc4c2[C@H](C3)N(C)CC4)cc1OC
inactive: dose: 9.0 mg/kg/injection, schedule: Q01DX010 (ip), vehicle: other 90 % of control | dose: 12.0 mg/kg/injection, schedule: Q01DX005 (ip), vehicle: other 95 % of control | dose: 12.0 mg/kg/injection, schedule: Q01DX010 (ip), vehicle: other 100 % of control | dose: 12.5 mg/kg/injection, schedule: Q01DX010 (ip), vehicle: other 109 % of control | dose: 18.0 mg/kg/injection, schedule: Q04DX003 (ip), vehicle: other 95 % of control | dose: 18.75 mg/kg/injection, schedule: Q01DX010 (ip), vehicle: other 118 % of control | dose: 24.0 mg/kg/injection, schedule: Q01DX005 (ip), vehicle: other 90 % of control | dose: 24.0 mg/kg/injection, schedule: Q01DX010 (ip), vehicle: other 104 % of control | dose: 25.0 mg/kg/injection, schedule: Q01DX010 (ip), vehicle: acetone 104 % of control | dose: 25.0 mg/kg/injection, schedule: Q01DX010 (ip), vehicle: other 104 % of control | dose: 27.0 mg/kg/injection, schedule: Q08DX002 (ip), vehicle: other 100 % of control | dose: 36.0 mg/kg/injection, schedule: Q04DX003 (ip), vehicle: other 90 % of control | dose: 37.5 mg/kg/injection, schedule: Q01DX010 (ip), vehicle: carboxymethylcellulose (CMC) 100 % of control | dose: 37.5 mg/kg/injection, schedule: Q01DX010 (ip), vehicle: other 104 % of control | dose: 48.0 mg/kg/injection, schedule: Q01DX005 (ip), vehicle: other 100 % of control | dose: 48.0 mg/kg/injection, schedule: Q01DX010 (ip), vehicle: other 104 % of control | dose: 50.0 mg/kg/injection, schedule: Q01DX010 (ip), vehicle: acetone 109 % of control | dose: 50.0 mg/kg/injection, schedule: Q01DX010 (ip), vehicle: clinical formulation 109 % of control | dose: 50.0 mg/kg/injection, schedule: Q01DX010 (ip), vehicle: other 120 % of control | dose: 54.0 mg/kg/injection, schedule: Q08DX002 (ip), vehicle: other 95 % of control | dose: 72.0 mg/kg/injection, schedule: Q04DX003 (ip), vehicle: other 100 % of control | dose: 75.0 mg/kg/injection, schedule: Q01DX010 (ip), vehicle: carboxymethylcellulose (CMC) 100 % of control | dose: 96.0 mg/kg/injection, schedule: Q01DX005 (ip), vehicle: other 100 % of control | dose: 96.0 mg/kg/injection, schedule: Q01DX010 (ip), vehicle: other 109 % of control | dose: 100.0 mg/kg/injection, schedule: Q01DX001 (ip), vehicle: carboxymethylcellulose (CMC) 110 % of control | dose: 100.0 mg/kg/injection, schedule: Q01DX010 (ip), vehicle: acetone 113 % of control | dose: 100.0 mg/kg/injection, schedule: Q01DX010 (ip), vehicle: other 120 % of control | dose: 100.0 mg/kg/injection, schedule: Q04DX002 (ip), vehicle: Klucel (hydroxypropylcellulose) (HPC) 100 % of control | dose: 108.0 mg/kg/injection, schedule: Q08DX002 (ip), vehicle: other 100 % of control | dose: 150.0 mg/kg/injection, schedule: Q01DX010 (ip), vehicle: carboxymethylcellulose (CMC) 105 % of control | dose: 200.0 mg/kg/injection, schedule: Q01DX001 (ip), vehicle: carboxymethylcellulose (CMC) 105 % of control | dose: 200.0 mg/kg/injection, schedule: Q01DX010 (ip), vehicle: other 100 % of control | dose: 200.0 mg/kg/injection, schedule: Q04DX002 (ip), vehicle: Klucel (hydroxypropylcellulose) (HPC) 91 % of control | dose: 216.0 mg/kg/injection, schedule: Q08DX002 (ip), vehicle: other 100 % of control | dose: 400.0 mg/kg/injection, schedule: Q01DX001 (ip), vehicle: carboxymethylcellulose (CMC) 110 % of control | dose: 400.0 mg/kg/injection, schedule: Q04DX002 (ip), vehicle: Klucel (hydroxypropylcellulose) (HPC) 100 % of control

Cc1ccc(CNc2ccccc2)cc1
inactive: dose: 25.0 mg/kg/injection, schedule: Q04DX003 (ip), vehicle: other 120 % of control | dose: 50.0 mg/kg/injection, schedule: Q04DX003 (ip), vehicle: other 105 % of control | dose: 100.0 mg/kg/injection, schedule: Q04DX003 (ip), vehicle: other 110 % of control

C=C(C)C(=O)NCC(=O)NC(Cc1ccccc1)C(=O)Oc1ccc([N+](=O)[O-])cc1 (centres undefined)
inactive: [1] 97 % of control | [2] 101 % of control | [3] 99 % of control

NC(=O)n1nccc1N
inactive: dose: 100.0 mg/kg/injection, schedule: Q01DX009 (ip), vehicle: saline 100 % of control | dose: 100.0 mg/kg/injection, schedule: Q04DX003 (ip), vehicle: saline 105 % of control | dose: 200.0 mg/kg/injection, schedule: Q01DX009 (ip), vehicle: saline 100 % of control | dose: 200.0 mg/kg/injection, schedule: Q04DX003 (ip), vehicle: saline 115 % of control | dose: 400.0 mg/kg/injection, schedule: Q01DX009 (ip), vehicle: saline 90 % of control | dose: 400.0 mg/kg/injection, schedule: Q04DX003 (ip), vehicle: saline 110 % of control

Cc1cc(NCCN(C(C)C)C(C)C)nc(/N=C(\N)Nc2ccc(Cl)c(C(F)(F)F)c2)n1
inactive: dose: 3.8 mg/kg/injection, schedule: Q04DX003 (ip), vehicle: Klucel (hydroxypropylcellulose) (HPC) 104 % of control | dose: 4.68 mg/kg/injection, schedule: Q01DX009 (ip), vehicle: Klucel (hydroxypropylcellulose) (HPC) 95 % of control | dose: 5.8 mg/kg/injection, schedule: Q04DX003 (ip), vehicle: Klucel (hydroxypropylcellulose) (HPC) 95 % of control | dose: 9.37 mg/kg/injection, schedule: Q01DX009 (ip), vehicle: Klucel (hydroxypropylcellulose) (HPC) 100 % of control | dose: 18.75 mg/kg/injection, schedule: Q01DX009 (ip), vehicle: Klucel (hydroxypropylcellulose) (HPC) 104 % of control | dose: 20.0 mg/kg/injection, schedule: Q04DX003 (ip), vehicle: Klucel (hydroxypropylcellulose) (HPC) 116 % of control | dose: 26.0 mg/kg/injection, schedule: Q01DX009 (ip), vehicle: Klucel (hydroxypropylcellulose) (HPC) 95 % of control | dose: 26.0 mg/kg/injection, schedule: Q04DX003 (ip), vehicle: Klucel (hydroxypropylcellulose) (HPC) 106 % of control | dose: 40.0 mg/kg/injection, schedule: Q04DX003 (ip), vehicle: Klucel (hydroxypropylcellulose) (HPC) 106 % of control and 116 % of control | dose: 60.0 mg/kg/injection, schedule: Q04DX003 (ip), vehicle: Klucel (hydroxypropylcellulose) (HPC) 123 % of control

CCCCCCC(C)[N+](C)(C)C (centres undefined)
inactive: dose: 6.25 mg/kg/injection, schedule: Q04DX003 (ip), vehicle: saline 116 % of control | dose: 12.5 mg/kg/injection, schedule: Q04DX003 (ip), vehicle: saline 100 % of control | dose: 25.0 mg/kg/injection, schedule: Q04DX003 (ip), vehicle: saline 113 % of control

CC1OC(n2ccc(NC(=O)c3ccc(NC(=O)C(C)(N)CO)cc3)nc2=O)CC(O)C1OC1OC(C)C(N(C)C)C(O)C1O (centres undefined)
inactive: dose: 2.5 mg/kg/injection, schedule: Q01DX009 (ip), vehicle: saline 106 % of control | dose: 5.0 mg/kg/injection, schedule: Q01DX009 (ip), vehicle: saline 103 % of control | dose: 10.0 mg/kg/injection, schedule: Q01DX009 (ip), vehicle: saline 111 % of control

c1ccc(C2=C(c3ccccc3)C23SCCS3)cc1
inactive: dose: 100.0 mg/kg/injection, schedule: Q01DX009 (ip), vehicle: Klucel (hydroxypropylcellulose) (HPC) 113 % of control | dose: 100.0 mg/kg/injection, schedule: Q04DX003 (ip), vehicle: Klucel (hydroxypropylcellulose) (HPC) 104 % of control | dose: 200.0 mg/kg/injection, schedule: Q01DX009 (ip), vehicle: Klucel (hydroxypropylcellulose) (HPC) 95 % of control | dose: 200.0 mg/kg/injection, schedule: Q04DX003 (ip), vehicle: Klucel (hydroxypropylcellulose) (HPC) 113 % of control | dose: 400.0 mg/kg/injection, schedule: Q01DX009 (ip), vehicle: Klucel (hydroxypropylcellulose) (HPC) 86 % of control | dose: 400.0 mg/kg/injection, schedule: Q04DX003 (ip), vehicle: Klucel (hydroxypropylcellulose) (HPC) 100 % of control

CCNC(C)(C)C(S)c1ccc(Cl)s1 (centres undefined)
inactive: dose: 12.5 mg/kg/injection, schedule: Q01DX009 (ip), vehicle: saline with Tween-80 93 % of control | [1] 93 % of control | dose: 25.0 mg/kg/injection, schedule: Q04DX003 (ip), vehicle: saline with Tween-80 101 % of control | [2] 91 % of control and 104 % of control | dose: 50.0 mg/kg/injection, schedule: Q04DX003 (ip), vehicle: saline with Tween-80 91 % of control | dose: 75.0 mg/kg/injection, schedule: Q04DX003 (ip), vehicle: saline with Tween-80 108 % of control | [3] 94 % of control and 109 % of control | dose: 100.0 mg/kg/injection, schedule: Q04DX003 (ip), vehicle: saline with Tween-80 114 % of control | dose: 200.0 mg/kg/injection, schedule: Q04DX003 (ip), vehicle: saline with Tween-80 116 % of control
